Experimental data as given in patent US20110009435A1, “HETERO BICYCLIC CARBOXAMIDE DERIVATIVES AND THEIR PHARMACEUTICAL USE AND COMPOSITIONS” (Pfizer, Inc., priority 2007, published 2011).
pKi: −log10 of the molar value.

Columns and labels:
Type in all cases: biochemical
[1] = biological target: T1, catalytic domain of human recombinant MMP-3 (Homo sapiens, UniProt P08254); experiment: In vitro MMP inhibition assay, MMP-3 catalytic domain (fluorogenic peptide substrate cleavage, Ki); details: human MMP-3, catalytic domain (CD); read-out: hMMP Ki 03/CD
T1 construct: made in house
Description: (§1) Matrix Metalloproteinase inhibitor compounds were analyzed in in vitro MMP Inhibition assays to determine their ability to inhibit the MMP cleavage of peptide substrates. Inhibition constants (Ki) were calculated from the assayed compound-MMP interactions.
(§2) Human recombinant MMP-1, MMP-2, MMP-3, MMP-7, MMP-9, MMP-12, MMP-13, MMP-14 and MMP-15 were used in these assays. The enzymes are prepared following known laboratory procedures. Protocols for the preparation and use of these enzymes are available in the scientific literature. See, e.g., Enzyme Nomenclature (Academic Press, San Diego, Calif., 1992) and the citations therein. See also Frije et al., J. Biol. Chem., 26(24), 16766-73 (1994).
The catalytic domain MMP-3 cDNA may be used to express the catalytic domain enzyme in E. coli inclusion bodies. Then the enzyme is solubilized in urea, purified on a preparative […] reverse phase HPLC column, and refolded in the presence of zinc acetate and purified for use.
The fluorogenic, methoxycoumarin-containing polypeptide substrate Mca-Arg-Pro-Lys-Pro-Val-Glu-Nva-Trp-Arg-Lys(Dnp)-NH2 (Bachem catalog number M-2110) was used as the MMP substrate in the MMP inhibition assays for catalytic domain of human recombinant MMP-3 (which refers to the catalytic domain of stromelysin). Here, “MCA” is 7-methoxycoumarin-4-yl acetyl and “Dpa” is 3-(2,4-dinitrophenyl)-L-2,3-di-aminopropionyl group. In the absence of MMP inhibitory activity, the substrate is cleaved at the Gly-Leu peptide bond. The cleavage separates the highly fluorogenic peptide from the 2,4-dinitrophenyl quencher, resulting in an increase of fluorescent intensity.
For the human MMP-3 assay, dilutions of the inhibitors (or salts thereof) were prepared in 100% DMSO. The stock solutions were diluted in Buffer B (50 mM N-morpholinoethane sulfonate (“MES”), 100 mM NaCl, 10 mM CaCl2, 0.005% polyoxyethylene 23 lauryl ether, pH 6.0)) to obtain solutions with different compound concentrations, i.e., assay solutions with different concentrations of the assayed MMP inhibitory compound in 1% DMSO. The experiment controls contained the same amount of Buffer B/DMSO as the assayed sample, but contained no inhibitor.
(§3) To determine Ki, the inhibitor samples are incubated at room temperature for 1 hr in the presence of enzyme and then 4 μM of appropriate MMP substrate was added, and samples were analyzed on a Tecan SpectraFlour Plus plate reader. The excitation wavelength is 330 nm, and the emission (fluorescence) wavelength is 420 nm. In the absence of MMP inhibitory activity, the substrate is cleaved at the Gly-Leu bond resulting in an increase of relative fluorescence. Inhibition is observed as a reduced rate of increase in relative fluorescence.
(§4) The inhibitors are analyzed using a single low enzyme concentration with a single substrate concentration fixed at or below the Km. This protocol is a modification of method by Knight et al., FEBS Lett., 296(3), 263-266 (1992). Apparent inhibitory constants are determined by non-linear regression of reaction velocity as a function of inhibitor and enzyme concentration using Morrison's equation, as described by Kuzmic, Anal. Biochem. 286, 45-50 (2000). Modifications were made in the non-linear regression method to allow a common control reaction rate and effective enzyme concentration to be shared between all dose-response relationships on a given assay plate. Since the substrate concentration was chosen to be at or below the Km, the apparent Ki's from this analysis were reported as Ki's without correction for the influence of substrate.

Human recombinant MMP-12 = biological target: T2, Human recombinant MMP-12 (Homo sapiens, UniProt P39900); experiment: In vitro MMP inhibition assay, MMP-12 catalytic domain (fluorogenic peptide substrate cleavage, Ki); details: human MMP-12, catalytic domain (CD); read-out: hMMP Ki 12/CD
T2 construct: The catalytic domain of MMP-12 and MMP-15 enzymes were purchased commercially for these assays; purchased
Description: as §1, §2
(§5) The catalytic domain of MMP-12 and MMP-15 enzymes were purchased commercially for these assays.
(§6) The fluorogenic, methoxycoumarin-containing polypeptide substrate MCA-ArgProLeuGlyLeuDpaAlaArgGluArgNH2 was used as the MMP substrate in the MMP inhibition assays for human recombinant MMP-1, MMP-2, MMP-7, MMP-9, MMP-12, MMP-13, MMP-14 and MMP-15. Here, “MCA” is 7-methoxycoumarin-4-yl acetyl and “Dpa” is 3-(2,4-dinitrophenyl)-L-2,3-di-aminopropionyl group. In the absence of MMP inhibitory activity, the substrate is cleaved at the Gly-Leu peptide bond. The cleavage separates the highly fluorogenic peptide from the 2,4-dinitrophenyl quencher, resulting in an increase of fluorescent intensity.
(§7) For the human MMP-1, MMP-2, MMP-7, MMP-9, MMP-12, MMP-13, MMP-14 and MMP-15 assays, dilutions of the inhibitors (or salts thereof) were prepared in 100% dimethyl sulfoxide (DMSO). The stock solutions were diluted in Buffer A (100 mM Tris-HCl, 100 mM NaCl, 10 mM CaCl2, 0.005% polyoxyethylene 23 lauryl ether, pH 7.5) to obtain solutions with different compound concentrations, i.e., assay solutions with different concentrations of the assayed MMP inhibitory compound in 1% DMSO. The experiment controls contained the same amount of Buffer A/DMSO as the assayed sample, but contained no inhibitor.
as §3, §4

Human recombinant MMP-13 = biological target: T3, Human recombinant MMP-13 (Homo sapiens, UniProt P45452); experiment: In vitro MMP inhibition assay, MMP-13 (fluorogenic peptide substrate cleavage, Ki); details: human MMP-13, full length (FL); read-out: hMMP Ki 13/FL
T3 construct: made in house; host or cells: baculovirus expression (insect cells)
Description: as §1, §2
The MMP-13 may be obtained as a proenzyme from a full-length cDNA clone using baculovirus expression, as described by V. A. Luckow, “Insect Cell Expression Technology,” Protein Engineering: Principles and Practice, pp. 183-218 (edited by J. L. Cleland et al., Wiley-Liss, Inc., 1996). The expressed proenzyme was first purified over a heparin agarose column, and then over a chelating zinc chloride column. Further details on baculovirus expression systems may be found in, for example, Luckow et al., J. Virol., 67, 4566-79 (1993). See also O'Reilly et al, Baculovirus Expression Vectors: A Laboratory Manual (W. H. Freeman and Co., New York, N.Y., 1992). See also King et al., The Baculovirus Expression System: A Laboratory Guide (Chapman & Hall, London, England, 1992).
All full length MMPs were activated using 4-aminophenylmercuric acetate (“APMA”, Sigma Chemical, St. Louis, Mo.) or trypsin. MMP-9 also was activated using human recombinant MMP-3 following standard cloning and purification techniques.
as §6, §7, §3
The inhibitors are analyzed using a single low enzyme concentration with a single substrate concentration fixed at or below the Km. This protocol is a modification of method by Knight et al., FEBS Lett., 296(3), 263-266 (1992). Apparent inhibitory constants are determined by non-linear regression of reaction velocity as a function of inhibitor and enzyme concentration using Morrison's equation, as described by Kuzmic, Anal. Biochem. 286, 45-50 (2000). […]

Human recombinant MMP-14 = biological target: T4, Human recombinant MMP-14 (Homo sapiens, UniProt P50281); experiment: In vitro MMP inhibition assay, MMP-14 catalytic domain (fluorogenic peptide substrate cleavage, Ki); details: human MMP-14, catalytic domain (CD); read-out: hMMP Ki 14/CD
T4 construct: The MMP-14 cDNA may be used to express the catalytic domain enzyme in E. coli inclusion bodies; made in house
Description: as §1, §2
The MMP-14 cDNA may be used to express the catalytic domain enzyme in E. coli inclusion bodies. Then the enzyme is solubilized in urea, purified on a preparative […] reverse phase HPLC column, and refolded in the presence of zinc acetate and purified for use.
as §6, §7, §3
as §4, with “Since the substrate concentration was chosen to be at or below the Km, the apparent Ki's from this analysis were reported as Ki's without correction for the influence of substrate.” left out

Human recombinant MMP-15 = biological target: T5, Human recombinant MMP-15 (Homo sapiens, UniProt P51511); experiment: In vitro MMP inhibition assay, MMP-15 catalytic domain (fluorogenic peptide substrate cleavage, Ki); details: human MMP-15, catalytic domain (CD); read-out: hMMP Ki 15/CD
T5 construct: The catalytic domain of MMP-12 and MMP-15 enzymes were purchased commercially for these assays; purchased
Description: as §1, §2, §5, §6, §7, §3, §4

T2 sequence (P39900 106-263 limits assumed): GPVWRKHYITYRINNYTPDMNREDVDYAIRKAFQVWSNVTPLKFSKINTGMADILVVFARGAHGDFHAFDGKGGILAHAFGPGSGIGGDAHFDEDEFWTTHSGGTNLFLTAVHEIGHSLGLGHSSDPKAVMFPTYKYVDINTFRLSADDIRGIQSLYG
T5 sequence (P51511 132-304 limits assumed): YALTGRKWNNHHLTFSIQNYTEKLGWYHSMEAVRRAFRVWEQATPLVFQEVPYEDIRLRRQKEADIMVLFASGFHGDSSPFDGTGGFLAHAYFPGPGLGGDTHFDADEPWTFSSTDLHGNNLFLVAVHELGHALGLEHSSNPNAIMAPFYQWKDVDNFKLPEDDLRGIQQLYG
T1 sequence (P08254 100-272 limits assumed): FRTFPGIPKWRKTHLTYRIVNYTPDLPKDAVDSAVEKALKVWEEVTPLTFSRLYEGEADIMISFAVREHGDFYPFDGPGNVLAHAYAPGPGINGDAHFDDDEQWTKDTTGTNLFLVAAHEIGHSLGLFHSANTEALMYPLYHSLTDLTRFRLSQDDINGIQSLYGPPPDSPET

SMILES	pKi [1]	pKi (Human recombinant MMP-12)	pKi (Human recombinant MMP-13)	pKi (Human recombinant MMP-14)	pKi (Human recombinant MMP-15)
COc1cc(CNC(=O)c2nc3scc(COC[C@H]4CC[C@H](CO)CC4)c3c(=O)[nH]2)ccc1F [Example 9, N-(4-Fluoro-3-methoxybenzyl)-5-(((trans-4-(hydroxymethyl)cyclohexyl)methoxy)methyl)-4-oxo-3,4-dihydrothieno[2,3-d]pyrimidine-2-carboxamide]	5.87	< 5.00	9.06	< 5.00	< 5.00
COc1cc(CNC(=O)c2nc3scc(COC[C@H]4CC[C@H](NS(C)(=O)=O)CC4)c3c(=O)[nH]2)ccc1F [Example 18, N-(4-Fluoro-3-methoxybenzyl)-5-[({trans-4-[(methylsulfonyl)amino]cyclohexyl}methoxy)methyl]-4-oxo-3,4-dihydrothieno[2,3-d]pyrimidine-2-carboxamide]	6.00	< 5.00	9.14	< 5.00	< 5.00
COc1cccc(CNC(=O)c2nc3scc(COC[C@@H]4CO[C@@H](CO)CO4)c3c(=O)[nH]2)c1 (relative stereo) [Example 7, N-(3-Methoxybenzyl)-5-(((trans-5-(hydroxymethyl)-1,4-dioxan-2-yl)methoxy)methyl)-4-oxo-3,4-dihydrothieno[2,3-d]pyrimidine-2-carboxamide]	5.79	< 5.00	7.94	< 5.00	< 5.00
